Like-named read-outs stand apart in the source and are kept apart here.
Columns and labels:
[1] = target: GSK3α (GST-full length GSK3α) (Homo sapiens (Human), UniProt P49840); experiment: GSK3α TR-FRET kinase assay; assay type: biochemical
In short: (§1)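 Compound preincubated 30 min, then 1 nM GST-full-length GSK3α or GSK3b run 100 min at ambient temperature with 200 nM biotinylated, S645-prephosphorylated glycogen synthase 631-650 peptide in Tris pH 7.5, MgCl2, DTT, BSA, 1% DMSO. ATP 4 μM (α) or 2 μM (β), or 1 mM. EDTA-quenched; Tb-anti-pSer641/streptavidin-d2 TR-FRET 665/615 ratio gave IC50.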

[2] = target: GSK3b (GST-full length GSK3b) (Homo sapiens (Human), UniProt P49841); experiment: GSK3b TR-FRET kinase assay; assay type: biochemical
In short: as §1

[3] = 1 nM GSK3α, 4 μM ATP, 30 minute preincubation, Table 16, read-out: GSK3-A TR-FRET BIOCHEMICAL (TR-FRET)
[4] = 1 nM GSK3b, 2 μM ATP, 30 minute preincubation, Table 16, read-out: GSK3-B TR-FRET BIOCHEMICAL (TR-FRET)
[5] = 1 nM GSK3α, 4 μM ATP, 30 minute preincubation, Table 16, read-out: GSK3-A TR-FRET BIOCHEMICAL (TR-FRET), IC50
[6] = 1 nM GSK3b, 2 μM ATP, 30 minute preincubation, Table 16, read-out: GSK3-B TR-FRET BIOCHEMICAL (TR-FRET), IC50
[7] = read-out: GSK3-A (TR-FRET 1 mM ATP), GMean, IC50, 1 mM ATP, geometric mean
[8] = read-out: GSK3-B (TR-FRET 1 mM ATP), GMean, IC50, 1 mM ATP, geometric mean
[9] = GSK3-A (TR-FRET 1 mM ATP), GMean, IC50, 1 mM ATP, geometric mean
[10] = GSK3-B (TR-FRET 1 mM ATP), GMean, IC50, 1 mM ATP, geometric mean

Chain of GSK3α (GST-full length GSK3α) (P49840 whole entry): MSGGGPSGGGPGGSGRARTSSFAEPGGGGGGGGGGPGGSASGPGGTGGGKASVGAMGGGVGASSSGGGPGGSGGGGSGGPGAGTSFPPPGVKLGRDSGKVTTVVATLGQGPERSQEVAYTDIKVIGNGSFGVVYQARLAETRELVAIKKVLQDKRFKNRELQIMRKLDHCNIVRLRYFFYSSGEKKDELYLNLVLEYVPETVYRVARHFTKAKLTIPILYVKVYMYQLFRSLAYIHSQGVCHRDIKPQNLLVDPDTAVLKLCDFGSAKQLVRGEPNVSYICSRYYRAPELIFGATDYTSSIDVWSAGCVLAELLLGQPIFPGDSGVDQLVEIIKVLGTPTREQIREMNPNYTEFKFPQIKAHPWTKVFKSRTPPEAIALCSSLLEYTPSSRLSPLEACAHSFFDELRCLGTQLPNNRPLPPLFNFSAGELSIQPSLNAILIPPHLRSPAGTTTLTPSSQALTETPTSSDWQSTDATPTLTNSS
Chain of GSK3b (GST-full length GSK3b) (P49841 whole entry): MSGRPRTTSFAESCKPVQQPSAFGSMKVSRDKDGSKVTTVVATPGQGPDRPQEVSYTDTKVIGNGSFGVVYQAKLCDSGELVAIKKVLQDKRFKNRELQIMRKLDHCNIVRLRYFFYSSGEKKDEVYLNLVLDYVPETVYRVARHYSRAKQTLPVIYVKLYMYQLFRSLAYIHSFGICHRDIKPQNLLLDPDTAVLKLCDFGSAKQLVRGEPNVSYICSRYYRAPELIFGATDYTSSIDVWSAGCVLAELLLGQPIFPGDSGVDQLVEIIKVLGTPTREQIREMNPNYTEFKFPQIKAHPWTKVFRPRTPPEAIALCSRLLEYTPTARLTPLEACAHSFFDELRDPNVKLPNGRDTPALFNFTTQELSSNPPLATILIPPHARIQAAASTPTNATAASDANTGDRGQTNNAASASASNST

Row | IC50 [1, 3] [nM] | IC50 [2, 4] [nM] | SMILES | further results
1 | 100 to 1000 | > 5000 | CCn1nccc1-c1cccc(C2(CC)C3=C(CC(C)(C)CC3=O)Nc3n[nH]cc32)c1 (stereo not shown) [Compound 946090] | –
2 | 1000 to 5000 | > 5000 | CCC1(c2cccc(-c3ccnn3C(C)C)c2)C2=C(CC(C)(C)CC2=O)Nc2n[nH]cc21 (stereo not shown) [Compound 946092] | –
3 | ≤ 100 | ≤ 100 | CCCn1nccc1-c1cccc(C2(CC)C3=C(CC(C)(C)CC3=O)Nc3n[nH]cc32)c1 (stereo not shown) [Compound 946093] | IC50 [1, 7]: ≤ 100 nM; IC50 [2, 8]: 100 to 1000 nM
4 | 100 to 1000 | 1000 to 5000 | CCCn1nccc1-c1cccc(C2(CC)C3=C(CC(C)(C)CC3=O)Nc3n[nH]cc32)c1 (stereo not shown) [Compound 946094] | –
5 | ≤ 100 | ≤ 100 | CCC1(c2cccc(-c3ccnn3CCC(C)C)c2)C2=C(CC(C)(C)CC2=O)Nc2n[nH]cc21 (stereo not shown) [Compound 946095] | –
6 | 100 to 1000 | > 5000 | CCC1(c2cccc(-c3ccnn3CCC(C)C)c2)C2=C(CC(C)(C)CC2=O)Nc2n[nH]cc21 (stereo not shown) [Compound 946096] | –
7 | ≤ 100 | 100 to 1000 | CCC1(c2cccc(-c3cc(C)nn3C)c2)C2=C(CC(C)(C)CC2=O)Nc2n[nH]cc21 (stereo not shown) [Compound 946097] | –

Second part, the compound before the results:

Row | SMILES | IC50 [1, 3] [nM] | IC50 [2, 4] [nM] | further results
8 | CC1(C)CC(=O)C2=C(C1)Nc1n[nH]cc1[C@@]21CO[C@@H](c2ccccc2)C1 [Compound 946073] | ≤ 100 | 100 to 1000 | –
9 | CC1(C)CC(=O)C2=C(C1)Nc1n[nH]cc1[C@]21CCC[C@H](C#N)C1 [Compound 946078] | – | – | IC50 [1, 5]: 1000 to 5000 nM; IC50 [2, 6]: > 5000 nM
10 | CC1(C)CC(=O)C2=C(C1)Nc1n[nH]cc1[C@]21CCC[C@@H](C#N)C1 [Compound 946080] | – | – | IC50 [1, 5]: 1000 to 5000 nM; IC50 [2, 6]: 1000 to 5000 nM
11 | CCC1(c2cccc(-c3ccnc(C)c3)c2)C2=C(Nc3n[nH]cc31)C(F)C(C)(C)CC2=O (stereo not shown) [Compound 946101] | 1000 to 5000 | > 5000 | –
12 | CCC1(c2cccc(-c3ccnc(C)c3)c2)C2=C(Nc3n[nH]cc31)C(F)C(C)(C)CC2=O (stereo not shown) [Compound 946102] | 1000 to 5000 | > 5000 | –
13 | CCC1(c2cccc(-c3ccnc(C)c3)c2)C2=C(Nc3n[nH]cc31)C(F)C(C)(C)CC2=O (stereo not shown) [Compound 946103] | 100 to 1000 | 1000 to 5000 | IC50 [1, 7]: > 5000 nM; IC50 [2, 8]: > 5000 nM
14 | CCC1(c2cccc(-c3ccnc(C)c3)c2)C2=C(Nc3n[nH]cc31)C(F)C(C)(C)CC2=O (stereo not shown) [Compound 946104] | ≤ 100 | 100 to 1000 | IC50 [1, 7]: 100 to 1000 nM; IC50 [2, 8]: > 5000 nM
15 | Cc1ccc(S(=O)(=O)N2CCC3(CC2)C2=C(CC(C)(C)CC2=O)Nc2n[nH]cc23)cc1Cl [Compound 947241] | ≤ 100 | ≤ 100 | –
16 | CC1(C)CC(=O)C2=C(C1)Nc1n[nH]cc1C21CCN(S(=O)(=O)c2cccc(OC(F)F)c2)CC1 [Compound 947242] | ≤ 100 | ≤ 100 | IC50 [1, 9]: ≤ 100 nM; IC50 [2, 10]: 100 to 1000 nM
17 | CC1(C)CC(=O)C2=C(C1)Nc1n[nH]cc1C21CCN(S(=O)(=O)c2cccc(Cl)c2)CC1 [Compound 947243] | ≤ 100 | ≤ 100 | IC50 [1, 9]: 100 to 1000 nM; IC50 [2, 10]: 1000 to 5000 nM
18 | CC1(C)CC(=O)C2=C(C1)Nc1n[nH]cc1C21CCN(S(=O)(=O)c2cccc(C(F)(F)F)c2)CC1 [Compound 947244] | ≤ 100 | ≤ 100 | –
19 | COc1ccc(C)c(S(=O)(=O)N2CCC3(CC2)C2=C(CC(C)(C)CC2=O)Nc2n[nH]cc23)c1 [Compound 947245] | ≤ 100 | 100 to 1000 | –
20 | CC1(C)CC(=O)C2=C(C1)Nc1n[nH]cc1C21CCN(S(=O)(=O)c2ccc(OC(F)F)cc2)CC1 [Compound 947246] | ≤ 100 | ≤ 100 | IC50 [1, 9]: ≤ 100 nM; IC50 [2, 10]: 100 to 1000 nM
21 | CN(C)C(=O)c1cccc(S(=O)(=O)N2CCC3(CC2)C2=C(CC(C)(C)CC2=O)Nc2n[nH]cc23)c1 [Compound 947247] | ≤ 100 | ≤ 100 | –
22 | CC1(C)CC(=O)C2=C(C1)Nc1n[nH]cc1C21CCN(S(=O)(=O)c2ccc(C(F)F)cc2)CC1 [Compound 947248] | ≤ 100 | ≤ 100 | –
23 | CC1(C)CC(=O)C2=C(C1)Nc1n[nH]cc1C21CCN(S(=O)(=O)c2cccc(Cl)c2Cl)CC1 [Compound 947249] | ≤ 100 | ≤ 100 | –
